Results from PMC5862616 (Oncotarget, 2018).
“Also recorded” adds a separate entry of the source.

Columns and labels:
[1] = target: CSF1R (Homo sapiens, UniProt P07333); assay: scanMAX kinase panel
[2] = target: T1, MERTK (Homo sapiens, UniProt Q12866); assay: scanMAX kinase panel
T1 sequence (Q12866 21-999): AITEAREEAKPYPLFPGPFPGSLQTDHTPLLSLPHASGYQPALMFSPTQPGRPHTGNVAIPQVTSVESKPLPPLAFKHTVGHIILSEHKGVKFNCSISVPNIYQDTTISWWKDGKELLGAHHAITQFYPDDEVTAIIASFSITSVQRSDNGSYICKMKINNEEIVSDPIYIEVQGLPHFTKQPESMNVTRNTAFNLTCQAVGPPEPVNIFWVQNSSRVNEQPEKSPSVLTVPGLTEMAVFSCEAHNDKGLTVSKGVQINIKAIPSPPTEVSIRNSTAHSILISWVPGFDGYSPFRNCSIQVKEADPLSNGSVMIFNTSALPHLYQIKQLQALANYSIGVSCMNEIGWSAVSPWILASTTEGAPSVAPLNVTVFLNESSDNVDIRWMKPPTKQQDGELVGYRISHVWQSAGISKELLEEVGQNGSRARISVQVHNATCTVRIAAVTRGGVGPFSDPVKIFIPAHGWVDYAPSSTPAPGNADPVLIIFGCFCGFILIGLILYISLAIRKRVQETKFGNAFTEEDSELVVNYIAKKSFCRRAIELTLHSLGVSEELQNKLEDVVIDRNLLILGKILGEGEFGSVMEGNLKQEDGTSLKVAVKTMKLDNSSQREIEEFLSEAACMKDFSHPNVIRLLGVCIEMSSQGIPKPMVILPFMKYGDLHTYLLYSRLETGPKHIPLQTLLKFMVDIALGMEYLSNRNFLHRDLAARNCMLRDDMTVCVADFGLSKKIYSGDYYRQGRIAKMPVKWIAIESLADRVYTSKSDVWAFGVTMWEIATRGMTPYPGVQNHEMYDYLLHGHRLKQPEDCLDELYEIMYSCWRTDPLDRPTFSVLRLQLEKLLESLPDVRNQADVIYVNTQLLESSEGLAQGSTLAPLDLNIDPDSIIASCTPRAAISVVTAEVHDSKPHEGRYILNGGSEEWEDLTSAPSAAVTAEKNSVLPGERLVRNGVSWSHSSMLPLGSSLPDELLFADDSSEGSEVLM

[3] = target: MKNK1 (Homo sapiens, UniProt Q9BUB5); assay: scanMAX kinase panel
Sequence of MKNK1 (Q9BUB5 whole entry): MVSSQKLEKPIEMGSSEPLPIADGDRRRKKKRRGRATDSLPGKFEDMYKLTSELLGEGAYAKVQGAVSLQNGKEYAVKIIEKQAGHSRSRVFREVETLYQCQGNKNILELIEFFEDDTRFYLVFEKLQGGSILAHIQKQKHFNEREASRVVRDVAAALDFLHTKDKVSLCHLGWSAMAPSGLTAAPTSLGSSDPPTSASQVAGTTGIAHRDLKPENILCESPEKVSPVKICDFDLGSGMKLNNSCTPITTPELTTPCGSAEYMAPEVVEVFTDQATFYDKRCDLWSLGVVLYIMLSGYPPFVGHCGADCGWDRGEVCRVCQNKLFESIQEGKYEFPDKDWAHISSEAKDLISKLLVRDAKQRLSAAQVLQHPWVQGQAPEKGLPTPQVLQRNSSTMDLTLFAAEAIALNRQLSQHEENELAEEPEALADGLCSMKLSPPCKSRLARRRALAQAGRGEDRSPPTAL

[4] = target: MST1R (Homo sapiens, UniProt Q04912); assay: scanMAX kinase panel
Sequence of MST1R (Q04912 25-1400): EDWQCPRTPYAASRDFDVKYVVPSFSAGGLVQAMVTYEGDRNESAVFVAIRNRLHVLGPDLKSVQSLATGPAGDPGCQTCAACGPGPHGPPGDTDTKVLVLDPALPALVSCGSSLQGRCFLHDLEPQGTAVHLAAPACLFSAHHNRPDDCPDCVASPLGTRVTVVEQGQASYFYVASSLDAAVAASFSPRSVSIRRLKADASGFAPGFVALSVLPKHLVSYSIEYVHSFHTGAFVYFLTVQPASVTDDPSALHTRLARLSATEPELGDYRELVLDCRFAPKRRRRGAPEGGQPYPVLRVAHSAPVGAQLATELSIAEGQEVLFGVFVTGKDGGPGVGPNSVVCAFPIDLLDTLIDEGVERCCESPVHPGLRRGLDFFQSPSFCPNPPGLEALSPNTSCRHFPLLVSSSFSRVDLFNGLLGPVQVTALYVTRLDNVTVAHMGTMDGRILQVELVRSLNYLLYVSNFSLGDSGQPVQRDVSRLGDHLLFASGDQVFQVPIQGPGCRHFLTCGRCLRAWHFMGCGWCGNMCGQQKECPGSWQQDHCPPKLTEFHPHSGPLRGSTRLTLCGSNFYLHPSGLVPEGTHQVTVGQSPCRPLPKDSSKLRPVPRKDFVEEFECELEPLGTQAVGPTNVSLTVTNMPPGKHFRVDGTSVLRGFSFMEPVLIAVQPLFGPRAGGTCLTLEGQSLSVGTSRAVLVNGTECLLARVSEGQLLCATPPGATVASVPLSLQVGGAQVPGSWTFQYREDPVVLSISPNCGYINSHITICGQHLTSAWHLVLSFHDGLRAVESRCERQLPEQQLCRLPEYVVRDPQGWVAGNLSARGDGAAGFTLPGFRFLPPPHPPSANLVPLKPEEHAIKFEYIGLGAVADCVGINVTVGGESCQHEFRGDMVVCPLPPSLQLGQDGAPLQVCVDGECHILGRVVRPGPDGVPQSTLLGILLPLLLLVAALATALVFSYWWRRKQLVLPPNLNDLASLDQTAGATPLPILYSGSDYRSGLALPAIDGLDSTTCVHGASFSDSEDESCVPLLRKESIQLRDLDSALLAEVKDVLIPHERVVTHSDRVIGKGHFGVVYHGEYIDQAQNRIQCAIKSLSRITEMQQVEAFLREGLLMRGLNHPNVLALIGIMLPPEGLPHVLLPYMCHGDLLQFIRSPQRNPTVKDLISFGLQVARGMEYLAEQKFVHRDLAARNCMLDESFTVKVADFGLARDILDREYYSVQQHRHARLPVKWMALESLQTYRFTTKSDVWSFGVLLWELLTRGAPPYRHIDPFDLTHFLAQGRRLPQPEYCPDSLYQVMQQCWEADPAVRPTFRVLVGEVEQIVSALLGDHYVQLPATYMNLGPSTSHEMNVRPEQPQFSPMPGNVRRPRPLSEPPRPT

[5] = target: DDR1 (Homo sapiens, UniProt Q08345); assay: scanMAX kinase panel
Sequence of DDR1 (Q08345 19-913): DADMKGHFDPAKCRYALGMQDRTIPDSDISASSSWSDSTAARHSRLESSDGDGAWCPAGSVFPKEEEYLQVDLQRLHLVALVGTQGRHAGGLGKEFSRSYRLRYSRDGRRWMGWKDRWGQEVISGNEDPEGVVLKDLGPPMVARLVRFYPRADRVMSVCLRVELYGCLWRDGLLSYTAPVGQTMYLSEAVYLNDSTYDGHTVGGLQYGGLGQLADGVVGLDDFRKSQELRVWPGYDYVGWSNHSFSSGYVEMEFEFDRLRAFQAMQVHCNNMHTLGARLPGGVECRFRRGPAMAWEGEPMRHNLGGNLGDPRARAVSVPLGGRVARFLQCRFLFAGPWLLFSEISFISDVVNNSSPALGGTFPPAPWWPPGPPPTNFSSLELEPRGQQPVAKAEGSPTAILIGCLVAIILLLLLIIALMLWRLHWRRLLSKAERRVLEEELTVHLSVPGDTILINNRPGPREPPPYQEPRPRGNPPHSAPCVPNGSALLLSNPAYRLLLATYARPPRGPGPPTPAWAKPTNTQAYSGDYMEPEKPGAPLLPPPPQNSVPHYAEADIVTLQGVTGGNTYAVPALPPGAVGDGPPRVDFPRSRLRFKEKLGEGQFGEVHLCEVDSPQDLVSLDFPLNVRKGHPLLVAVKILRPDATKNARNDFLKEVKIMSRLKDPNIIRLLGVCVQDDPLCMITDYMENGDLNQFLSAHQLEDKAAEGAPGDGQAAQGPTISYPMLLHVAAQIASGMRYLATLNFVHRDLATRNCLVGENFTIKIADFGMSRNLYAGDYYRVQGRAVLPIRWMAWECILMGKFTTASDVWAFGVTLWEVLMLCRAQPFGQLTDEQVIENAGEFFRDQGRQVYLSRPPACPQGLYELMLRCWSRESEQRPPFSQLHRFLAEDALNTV

[6] = target: T2, AXL (Homo sapiens, UniProt P30530); assay: scanMAX kinase panel
T2 sequence (P30530 26-894): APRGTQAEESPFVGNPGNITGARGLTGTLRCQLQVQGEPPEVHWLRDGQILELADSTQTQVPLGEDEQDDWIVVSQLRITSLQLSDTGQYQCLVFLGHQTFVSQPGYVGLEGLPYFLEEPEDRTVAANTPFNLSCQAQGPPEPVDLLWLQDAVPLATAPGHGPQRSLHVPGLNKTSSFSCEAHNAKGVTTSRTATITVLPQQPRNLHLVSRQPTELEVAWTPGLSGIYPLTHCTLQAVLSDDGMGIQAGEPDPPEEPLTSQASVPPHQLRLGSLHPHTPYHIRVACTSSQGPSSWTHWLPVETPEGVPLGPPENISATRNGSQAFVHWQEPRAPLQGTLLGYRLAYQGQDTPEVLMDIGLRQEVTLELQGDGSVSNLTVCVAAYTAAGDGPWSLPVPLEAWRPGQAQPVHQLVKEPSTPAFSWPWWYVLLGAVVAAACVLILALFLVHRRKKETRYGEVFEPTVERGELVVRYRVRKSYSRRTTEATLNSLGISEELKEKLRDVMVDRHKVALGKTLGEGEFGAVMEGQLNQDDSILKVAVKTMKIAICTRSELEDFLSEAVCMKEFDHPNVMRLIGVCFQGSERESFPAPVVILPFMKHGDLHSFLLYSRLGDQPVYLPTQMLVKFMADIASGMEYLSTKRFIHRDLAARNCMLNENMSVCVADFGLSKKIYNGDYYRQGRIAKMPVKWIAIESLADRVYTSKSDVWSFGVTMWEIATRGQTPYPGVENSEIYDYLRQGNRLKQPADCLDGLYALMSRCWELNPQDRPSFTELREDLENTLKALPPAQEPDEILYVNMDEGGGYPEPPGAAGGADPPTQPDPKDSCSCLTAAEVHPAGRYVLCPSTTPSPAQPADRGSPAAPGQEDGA

[7] = target: PDGFRA (Homo sapiens, UniProt P16234); assay: scanMAX kinase panel
[8] = target: ROS1 (Homo sapiens, UniProt P08922); assay: scanMAX kinase panel
[9] = test system: KM-12 cells; assay: KM-12 anchorage dependent cell proliferation (CellTiter-Glo); type: cell-based; details: read-out: IC50 KM-12 cell proliferation (anchorage dependent)
[10] = test system: KM-12 cells; assay: KM-12 anchorage independent growth in alginate; type: cell-based; details: alginate, 72 hours, colony formation, read-out: IC50 KM-12 anchorage independent growth
[11] = target: TPM3-NTRK1 (p-NTRK1 Y490) in KM-12 cells (Homo sapiens, UniProt P04629+P06753); assay: Western blot of p-NTRK1 Y490 in KM-12 cells; details: 2 hours, b12: 100, 500, 1000 nM
Sequence of TPM3-NTRK1 (p-NTRK1 Y490) in KM-12 cells (P06753+P04629 fused): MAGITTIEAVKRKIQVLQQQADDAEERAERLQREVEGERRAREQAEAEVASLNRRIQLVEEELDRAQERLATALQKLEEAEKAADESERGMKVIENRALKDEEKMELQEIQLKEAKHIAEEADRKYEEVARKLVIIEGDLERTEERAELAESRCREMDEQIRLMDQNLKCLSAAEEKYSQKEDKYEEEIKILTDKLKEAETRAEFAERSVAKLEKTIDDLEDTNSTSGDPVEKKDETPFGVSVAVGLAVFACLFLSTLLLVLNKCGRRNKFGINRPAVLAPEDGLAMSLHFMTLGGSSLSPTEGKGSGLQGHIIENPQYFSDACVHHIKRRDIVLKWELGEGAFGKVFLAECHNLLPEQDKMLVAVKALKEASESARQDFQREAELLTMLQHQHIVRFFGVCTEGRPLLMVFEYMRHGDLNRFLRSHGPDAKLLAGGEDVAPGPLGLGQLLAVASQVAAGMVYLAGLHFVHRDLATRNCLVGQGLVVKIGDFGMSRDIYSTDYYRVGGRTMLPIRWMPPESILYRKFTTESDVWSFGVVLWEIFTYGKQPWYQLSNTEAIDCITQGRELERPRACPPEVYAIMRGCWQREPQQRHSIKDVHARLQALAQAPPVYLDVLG

[12] = target: NTRK1 (TrkA) (Homo sapiens, UniProt P04629); assay: TrkA PathHunter cell based kinase assay (activation by NGF); design: purchased DiscoveRx; details: activation by the ligand NGF; ten-point, 3.8 nM - 10 μM
[13] = target: RET (Homo sapiens, UniProt P07949); assay: scanMAX kinase panel
Sequence of RET (P07949 29-1114): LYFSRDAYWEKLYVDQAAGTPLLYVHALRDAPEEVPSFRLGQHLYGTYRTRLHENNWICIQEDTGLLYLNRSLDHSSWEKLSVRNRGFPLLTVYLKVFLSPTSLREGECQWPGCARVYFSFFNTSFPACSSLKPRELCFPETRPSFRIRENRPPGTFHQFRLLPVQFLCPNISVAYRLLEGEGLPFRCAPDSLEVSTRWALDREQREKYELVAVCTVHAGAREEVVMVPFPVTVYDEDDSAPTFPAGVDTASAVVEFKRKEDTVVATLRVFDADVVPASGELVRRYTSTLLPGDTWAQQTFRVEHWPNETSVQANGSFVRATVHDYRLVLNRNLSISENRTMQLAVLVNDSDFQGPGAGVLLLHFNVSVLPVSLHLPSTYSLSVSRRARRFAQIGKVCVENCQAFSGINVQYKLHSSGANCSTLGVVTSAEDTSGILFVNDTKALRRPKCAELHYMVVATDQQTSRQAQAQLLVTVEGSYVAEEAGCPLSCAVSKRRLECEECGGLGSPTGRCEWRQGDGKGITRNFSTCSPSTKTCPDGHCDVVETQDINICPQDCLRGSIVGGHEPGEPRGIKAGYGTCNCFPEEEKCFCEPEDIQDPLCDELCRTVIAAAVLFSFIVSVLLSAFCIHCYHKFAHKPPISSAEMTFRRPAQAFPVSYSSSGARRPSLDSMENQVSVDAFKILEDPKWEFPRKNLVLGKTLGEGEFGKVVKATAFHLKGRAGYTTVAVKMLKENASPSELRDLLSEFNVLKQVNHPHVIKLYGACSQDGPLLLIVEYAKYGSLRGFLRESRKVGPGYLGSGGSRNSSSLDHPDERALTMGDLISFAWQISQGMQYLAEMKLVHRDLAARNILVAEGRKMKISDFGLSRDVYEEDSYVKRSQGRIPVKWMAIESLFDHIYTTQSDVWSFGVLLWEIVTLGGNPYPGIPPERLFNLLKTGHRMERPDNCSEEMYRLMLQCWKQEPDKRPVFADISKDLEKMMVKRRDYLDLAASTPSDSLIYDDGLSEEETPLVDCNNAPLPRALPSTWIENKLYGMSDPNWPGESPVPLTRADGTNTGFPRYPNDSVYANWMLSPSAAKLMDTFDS

[14] = 72 hours, CellTiter-Glo, 2% FBS

SMILES | % Inhibition at 0.2 μM, CSF1R [1] [%] | % Inhibition at 0.2 μM, MERTK [2] [%] | % Inhibition at 0.2 μM, MKNK1 [3] [%] | % Inhibition at 0.2 μM, MST1R [4] [%] | % Inhibition at 0.2 μM, DDR1 [5] [%] | % Inhibition at 0.2 μM, AXL [6] [%] | % Inhibition at 0.2 μM, PDGFRA [7] [%] | % Inhibition at 0.2 μM, ROS1 [8] [%] | IC50 [9, 14] [nM] | IC50 [10] [nM] | p-NTRK1 inhibition (in words) [11] | IC50 [12] [nM] | % Inhibition at 0.2 μM, RET [13] [%] | inhibition at 0.2 µM ([2]; read-out: % Inhibition at 0.2 μM, MERTK) [%] | inhibition at 0.2 µM ([3]; read-out: % Inhibition at 0.2 μM, MKNK1) [%] | inhibition at 0.2 µM ([6]; read-out: % Inhibition at 0.2 μM, AXL) [%] | IC50 ([9]; Homo sapiens, KM12, 72 h) [nM] | IC50 ([10]; Homo sapiens, KM12) [nM]
Cc1ccc(C(=O)Nc2ccc(Oc3cc4cn[nH]c4cc3-c3cn[nH]c3)c(F)c2)c(=O)n1-c1ccc(F)cc1 [M1] | 98 | 99 | 70 | 95 | 100 | 99 | 80 | 95 | 16 | 79 | potent inhibition | 12 | 72 | – | – | – | – | –
Cn1ncc2cc(Oc3ccc(NC(=O)c4ccc(CO)n(-c5ccc(F)cc5)c4=O)cc3F)c(-c3cn[nH]c3)cc21 [M2] | 97 | 93 | 62 | 88 | 100 | 100 | 70 | 78 | 102 | 206 | slightly less so | 92 | 61 | – | – | – | – | –
Cc1ccc(C(=O)Nc2ccc(Oc3cc4cnn(C)c4cc3-c3cn[nH]c3)c(F)c2)c(=O)n1-c1ccc(F)cc1 [Merestinib] | 97 | – | – | 96 | 100 | – | 55 | 83 | – | – | dose dependent decrease; also recorded: potent inhibition | 17 | 79 | 96 | 56 | 100 | 10 | 45
